Ki data for twelve compounds are collected here from US10844032B2, “Substituted benzofuran, benzothiophene and indole Mcl-1 inhibitors” (Vanderbilt University, priority 2012, dated 2020).

recombinant Mcl-1 (residues 172-327), sequence (Q07820 172-327): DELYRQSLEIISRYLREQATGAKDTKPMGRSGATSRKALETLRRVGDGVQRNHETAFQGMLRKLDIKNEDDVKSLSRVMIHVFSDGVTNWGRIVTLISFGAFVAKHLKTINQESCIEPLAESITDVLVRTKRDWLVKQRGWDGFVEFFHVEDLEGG

One assay has as its target recombinant Mcl-1 (residues 172-327) (Homo sapiens (Human), UniProt Q07820). Kind of assay: Bak peptide fluorescence polarization anisotropy competition assay, Mcl-1. It is filed as binding. The settings on record: Table 2, Ki range; FITC-Bak peptide 10 nM, Mcl-1 14 nM; read-out: Ki for inhibition of Mcl-1.
Turning to `Cc1cc(OCCCc2c(C(=O)NS(=O)(=O)c3ccccc3)[nH]c3cc(Cl)ccc23)cc(C)c1Cl` [Example 216, 6-chloro-3-(3-(4-chloro-3,5-dimethylphenoxy)propyl)-N-(phenylsulfonyl)-1H-indole-2-carboxamide], the inhibition constant Ki (commonly the equilibrium dissociation constant of an inhibitor or competing ligand from its target) is no more than 100 nM.
Take `Cc1cc(OCCCc2c(C(=O)NS(=O)(=O)CCNC(=O)C3CCCCC3)[nH]c3cc(Cl)ccc23)cc(C)c1Cl` [Example 226, 6-chloro-3-(3-(4-chloro-3,5-dimethylphenoxy)propyl)-N-((2-(cyclohexanecarboxamido)ethyl)sulfonyl)-1H-indole-2-carboxamide]: the inhibition constant (Ki) is no more than 100 nM.

Still in this assay, the particulars now being: read-out: Ki for inhibition of Mcl-1.
Consider `Cc1cc(OCCCc2c(C(=O)NS(=O)(=O)C3CCN(C(=O)c4cccn4Cc4ccccc4)CC3)[nH]c3cc(Cl)ccc23)cc(C)c1Cl` [Example 215, N-((1-(1-benzyl-1H-pyrrole-2-carbonyl)piperidin-4-yl)sulfonyl)-6-chloro-3-(3-(4-chloro-3,5-dimethylphenoxy)propyl)-1H-indole-2-carboxamide], for which the Ki lay within 301 to 500 nM.
The same measure, in the same setting: under `Cc1cccc(S(=O)(=O)NC(=O)c2[nH]c3cc(Cl)ccc3c2CCCOc2cc(C)c(Cl)c(C)c2)c1` [Example 217, 6-chloro-3-(3-(4-chloro-3,5-dimethylphenoxy)propyl)-N-(m-tolylsulfonyl)-1H-indole-2-carboxamide] stands 101 to 299 nM.
Regarding `Cc1cc(OCCCc2c(C(=O)NS(=O)(=O)c3cccc(Br)c3)[nH]c3cc(Cl)ccc23)cc(C)c1Cl` [Example 218, N-((3-bromophenyl)sulfonyl)-6-chloro-3-(3-(4-chloro-3,5-dimethylphenoxy)propyl)-1H-indole-2-carboxamide], the inhibition constant Ki lay in the range of 101 to 299 nM.
Take `Cc1cc(OCCCc2c(C(=O)NS(=O)(=O)c3ccc(-c4ccccc4)cc3)[nH]c3cc(Cl)ccc23)cc(C)c1Cl` [Example 219, N-([1,1′-biphenyl]-4-ylsulfonyl)-6-chloro-3-(3-(4-chloro-3,5-dimethylphenoxy)propyl)-1H-indole-2-carboxamide]: the Ki was in the range of 301 to 500 nM.
The same measure, in the same setting: with `COc1ccc(Oc2cccc(S(=O)(=O)NC(=O)c3[nH]c4cc(Cl)ccc4c3CCCOc3cc(C)c(Cl)c(C)c3)c2)cc1` [Example 220, 6-chloro-3-(3-(4-chloro-3,5-dimethylphenoxy)propyl)-N-((3-(4-methoxyphenoxy)phenyl)sulfonyl)-1H-indole-2-carboxamide] the figure was 101 to 299 nM; with `Cc1cc(OCCCc2c(C(=O)NS(=O)(=O)c3ccc(Oc4ccc(Cl)c(Cl)c4)cc3)[nH]c3cc(Cl)ccc23)cc(C)c1Cl` [Example 221, 6-chloro-3-(3-(4-chloro-3,5-dimethylphenoxy)propyl)-N-((4-(3,4-dichlorophenoxy)phenyl)sulfonyl)-1H-indole-2-carboxamide], 301 to 500 nM.
Still for that read-out and setting: under `Cc1cc(OCCCc2c(C(=O)NS(=O)(=O)c3ccc(Oc4ccccc4)cc3)[nH]c3cc(Cl)ccc23)cc(C)c1Cl` [Example 222, 6-chloro-3-(3-(4-chloro-3,5-dimethylphenoxy)propyl)-N-((4-phenoxyphenyl)sulfonyl)-1H-indole-2-carboxamide] stands 101 to 299 nM.
On the same count and under the same terms, with `CCOc1ccc(Oc2ccc(S(=O)(=O)NC(=O)c3[nH]c4cc(Cl)ccc4c3CCCOc3cc(C)c(Cl)c(C)c3)cc2)cc1` [Example 223, 6-chloro-3-(3-(4-chloro-3,5-dimethylphenoxy)propyl)-N-((4-(4-ethoxyphenoxy)phenyl)sulfonyl)-1H-indole-2-carboxamide] the figure was 301 to 500 nM.
As to `Cc1cc(OCCCc2c(C(=O)NS(=O)(=O)c3ccc(OCc4ccccc4)cc3)[nH]c3cc(Cl)ccc23)cc(C)c1Cl` [Example 224, N-((4-(benzyloxy)phenyl)sulfonyl)-6-chloro-3-(3-(4-chloro-3,5-dimethylphenoxy)propyl)-1H-indole-2-carboxamide], the inhibition constant (Ki) is 301 to 500 nM.
Turning to `Cc1cc(OCCCc2c(C(=O)NS(=O)(=O)c3ccc(OCc4ccccc4)nc3)[nH]c3cc(Cl)ccc23)cc(C)c1Cl` [Example 225, N-((6-(benzyloxy)pyridin-3-yl)sulfonyl)-6-chloro-3-(3-(4-chloro-3,5-dimethylphenoxy)propyl)-1H-indole-2-carboxamide], the Ki was in the range of 301 to 500 nM.
